Data from the NIST ThermoML archive (doi:10.1021/je060271a).

Settings: 303.15 K, Liquid, Vibrating tube method

CCCCCC(=O)OCC(COC(=O)CCCCC)(COC(=O)CCCCC)COC(=O)CCCCC [pentaerythritol tetrahexanoate]
Settings	mass density [kg/m3]
5137.3 kPa	991.5
5153 kPa	991.6
5168.7 kPa	991.7
5185 kPa	991.7
5201.1 kPa	991.6
5220.3 kPa	991.6
5236.1 kPa	991.6
5252.7 kPa	991.7
5271.9 kPa	991.8
5288.3 kPa	991.7
5304.7 kPa	991.7
5321.5 kPa	991.6
5341.1 kPa	991.8
5357.3 kPa	991.8
5683.2 kPa	992
5701.2 kPa	992
5722.4 kPa	992
5740.3 kPa	992
5758.4 kPa	992.1
5780 kPa	992.1
5798.2 kPa	992
5816.3 kPa	992.1
5835 kPa	992.1
5853.7 kPa	992.1
5912.7 kPa	992.1
6092.3 kPa	992.3
6130.7 kPa	992.2
6149.9 kPa	992.4
6172.7 kPa	992.3
6191.3 kPa	992.3
6210.7 kPa	992.3
6233.5 kPa	992.3
6252.4 kPa	992.3
6271.5 kPa	992.4
6294.4 kPa	992.3
6313.7 kPa	992.3
6333.6 kPa	992.5
6354.3 kPa	992.4
6373.3 kPa	992.4
6396.3 kPa	992.4
6415.5 kPa	992.5
6434.7 kPa	992.6
6457.8 kPa	992.5
6476.9 kPa	992.5
6496.6 kPa	992.5
6516.3 kPa	992.5
6539.1 kPa	992.5
6558.1 kPa	992.5
6581.1 kPa	992.6
6600.9 kPa	992.6
6621.4 kPa	992.5
6640.4 kPa	992.6
6659.3 kPa	992.6
6681.6 kPa	992.6
6699.9 kPa	992.6
6718.5 kPa	992.7
6740.3 kPa	992.7
6758.3 kPa	992.6
6776.2 kPa	992.7
6797.8 kPa	992.7
6815.4 kPa	992.7
6833.2 kPa	992.7
6854.1 kPa	992.7
6871.8 kPa	992.8
6889.4 kPa	992.6
6907.3 kPa	992.8
6924.8 kPa	992.7
6946.2 kPa	992.8
6963.8 kPa	992.8
6981.6 kPa	992.8
6999.8 kPa	992.8
7021.5 kPa	992.9
7039.5 kPa	992.8
7057.3 kPa	992.9
7079.2 kPa	992.9
7097.5 kPa	992.8
7116 kPa	992.9
7134.1 kPa	992.9
7155.9 kPa	992.9
7174.4 kPa	992.9
7192.5 kPa	993
7214.4 kPa	993
7232.7 kPa	993
7251.4 kPa	992.9
7273.7 kPa	993
7292.3 kPa	993
7310.6 kPa	993
7333.2 kPa	993
7352.4 kPa	993
7371.4 kPa	993.1
7394.2 kPa	993.1
7413.2 kPa	993
7432.5 kPa	993.1
7451.7 kPa	993.1
7474.8 kPa	993.1
7494.2 kPa	993.1
7513.5 kPa	993.1
7533.2 kPa	993.2
7556.5 kPa	993.2
7576.2 kPa	993.2
7596.7 kPa	993.2
7616.7 kPa	993.2
7640.5 kPa	993.3
7660.7 kPa	993.2
7680.6 kPa	993.3
7700.8 kPa	993.4
7724.8 kPa	993.2
7744.8 kPa	993.2
7765.4 kPa	993.3
7785.7 kPa	993.3
7809.9 kPa	993.4
7830.6 kPa	993.4
7851.3 kPa	993.3
7876.2 kPa	993.3
7897.2 kPa	993.3
7917.7 kPa	993.4
7938.5 kPa	993.5
7963.1 kPa	993.4
7984.2 kPa	993.4
8005.2 kPa	993.6
8026.6 kPa	993.4
8051.8 kPa	993.5
8072.9 kPa	993.6
8094.6 kPa	993.3
8120 kPa	993.5
8141.2 kPa	993.6
8163.1 kPa	993.5
8186 kPa	993.6
8208.3 kPa	993.6
8233.8 kPa	993.6
8255.4 kPa	993.6
8277.5 kPa	993.6
8303.5 kPa	993.7
8325.2 kPa	993.6
8347.2 kPa	993.7
8373.2 kPa	993.7
8395.6 kPa	993.7
8417.7 kPa	993.7
8440.3 kPa	993.7
8467.9 kPa	993.8
8491.4 kPa	993.8
8513.6 kPa	993.8
8536.1 kPa	993.9
8563.5 kPa	993.6
